In experiment [1] the test system is adult MeCP2+/- female mice. Description: Optical imaging of intrinsic signals, ocular dominance plasticity. The format is in vivo, mouse. The conditions noted are these: monocularly deprived for 4 days, treated concurrently; aged P60 or more. Here is the method: For the survival measurements, the nocturnal activity analysis and the immunoblot analysis, G-2-MePE (synthesised Albany Molecular Research Inc. (Albany, N.Y.) and supplied by Neuren Pharmaceuticals Limited) is administered daily via intra-peritoneal injections (20 mg/kg, vehicle=saline, 0.01% BSA). The treatment starts at PI 5 and is maintained throughout the course of the experiments. For intracellular physiology experiments, the mice are injected daily with G-2-MePE (20 mg/kg body weight, vehicle=saline, 0.01% BSA) for 2 weeks, from P15 to P28-P32 when they are used for acute slice preparation. For optical imaging experiments, mice are injected with G-2-MePE (20 mg/kg body weight, vehicle=saline, 0.01% BSA) daily from the day of the lid suture to the day of imaging.
Adult (>P60) wild type (SVEV or BL6) and MeCP2 (+/−) mutant females (BL6) are used for this experiment. The wild type control group is composed of both wild type littermates of MeCP2+/− females or wild type age matched SVEV females. For monocular deprivation, animals are anesthetized with Avertin (0.016 ml/g) and the eyelids of one eye is sutured for 4 days. […] During the imaging session, the animal is constantly oxygenated, its temperature maintained with a heating blanket and the eyes periodically treated with silicone oil; physiological conditions are constantly monitored. […]

In the next experiment the test system is 17 month old rats. The experiment in a line: 8-arm radial maze test, spatial working memory. Type of experiment: in vivo, rat. The conditions noted are these: for Working Correct Choice WCC8-12 across days: 9-day washout. The source says:
Five months after the original experiment the now 17 month old rats were retested for spatial working memory in a radial arm maze.
The apparatus consists of a central platform communicating with 8 identical arms, each with a food cup at the end of the arm
Rats were partially food-deprived for at least 10 days prior to, and throughout the radial maze procedure.
The maze was assembled and positioned so that the experimenter could clearly observe the rats' behavior from a predetermined location. The experimenter numbered the arms of the maze according to their orientation from one to eight in a clock-wise direction.
On day one the doors were inserted into the arms and each rat was confined in the central platform with 20 food pellets for 5 minutes. […] The following day the rats were allowed five minutes to explore the whole maze. All arms were baited with two food pellets in the food cup located at the end of each arm, and one pellet at both the entrance and middle of each arm. This was repeated for at least five, but up to eight days for rats that explored fewer than eight arms in two consecutive sessions. […] At this point it was decided that one of the old rats that had made only one arm entry on eight of the nine days should be excluded from future testing in this procedure. Otherwise all rats were included regardless of the amount of exploring they performed in pre-training.
30 days before the test (five days after pre-training) the 17 Male Wistar month old rats were implanted (under halothane anesthesia) with sub-cutaneous mini-osmotic pumps (Alzet) to dispense drug continuously for 3 weeks. At the completion of the infusion the pumps were removed and the wounds re-sutured (9-day washout allowed).
3. G-2-MePE low dose (2.4 mg/kg/day) n=13
4. G-2-MePE high dose (12.4 mg/kg/day) n=5
Saline and the low dose groups are comprised of all the rats that received those treatments in phase 1 of this experiment (when the rats were 12 months old) regardless of whether they had the one or three week treatment. One rat in each of the saline and high dose groups have been dropped because of skin tumors.
Working memory testing commenced on the ninth day of washout. Rats received 10 daily training sessions over 12 days. The procedure was the same as for pre-training but only the food cups were baited. Rats had 6 minutes to make up to 16 choices by visiting any of the eight arms. A choice was defined as occurring when all four paws were inside an arm. The experimenter recorded the sequence of arm entries with pen and paper, Sessions were terminated after all eight arms had been entered, 16 choices made, or 6 minutes had elapsed. The time taken to enter all eight arms, when this occurred, was recorded.
An arm choice was considered correct when the rat entered an arm not previously visited. […]

Non-standard residues stand in square brackets, D forms with d. Residues, ends and D or L forms follow the SMILES beside them. αMeP = C[C@@]1(C(=O)O)CCCN1

Take `C[C@@]1(C(=O)N[C@@H](CCC(=O)O)C(=O)O)CCCN1C(=O)CN` [Example G-2-MePE, Glycyl-L-2-methylprolyl-L-glutamic acid] (H-Gly-[αMeP]-Glu-OH): in experiment [1], the OD plasticity entry was “reduces”. Also, the “Correct Choice CC8-12” value in the experiment on 17 month old rats (all groups, 10 days of testing) is “no significant group effect”. Further, the “Working Correct Choice WCC8-12 across days” value with 17 month old rats (high dose 12.4 mg/kg/day s.c. 3 weeks) was “greatest improvement across days”; in the experiment with 17 month old rats (low dose 2.4 mg/kg/day s.c. 3 weeks, vs saline) it was “very little difference”. Further, the “correct maze choices averaged across days” value in the experiment on 17 month old rats (higher dose, vs vehicle treated rats, p<0.05, FIG. 18B) is reported as “more correct entries”.

For the origin of these results see patent US9212204B2, “Treatment of rett syndrome using glycyl-L-2-methylprolyl-L-glutamic acid” (priority 2011, dated 2015).
